From EP4527828A1, “BIPHENYL COMPOUND, PHARMACEUTICAL COMPOSITION, METHOD FOR PREPARING SAME, AND USE THEREOF” (Longivitron (Suzhou) Biotechnology Co., Ltd, priority 2022, dated 2023)
Read-outs that look alike come from different tables or passages of the source.

Tests used:
LAG3/MHCII = biological target: T1, LAG3/MHCII (Homo sapiens, UniProt P18627); test: HTRF binding inhibition of LAG3 and its ligand MHCII; details: binding inhibition LAG3/MHCII
T1 sequence (P18627 23-450 limits assumed): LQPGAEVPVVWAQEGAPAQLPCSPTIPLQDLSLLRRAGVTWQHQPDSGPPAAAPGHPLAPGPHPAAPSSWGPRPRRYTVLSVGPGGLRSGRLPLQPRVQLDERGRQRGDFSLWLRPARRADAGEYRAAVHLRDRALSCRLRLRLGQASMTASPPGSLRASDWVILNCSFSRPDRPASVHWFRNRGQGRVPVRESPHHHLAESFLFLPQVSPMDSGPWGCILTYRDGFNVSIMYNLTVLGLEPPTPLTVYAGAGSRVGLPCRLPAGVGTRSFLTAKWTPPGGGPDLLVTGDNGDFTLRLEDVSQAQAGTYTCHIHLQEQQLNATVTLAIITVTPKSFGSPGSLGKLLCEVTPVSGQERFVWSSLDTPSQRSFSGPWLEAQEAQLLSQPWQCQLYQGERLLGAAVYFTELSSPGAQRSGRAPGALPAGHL
Protocol: HTRF (Homogeneous time-resolved fluorescence) is based on two techniques, fluorescence resonance energy transfer (FRET) and time-resolved fluorescence (TRF). The detection was carried out using a 384-well plate. 2 µL of a compound to be tested with an appropriate concentration was collected, 4 µL of Tag1-LAG3 protein (with a final concentration of 10 nmol·L^-1) was added, 4 µL of Tag2-MHCII (with a final concentration of 20 nmol·L^-1) was added, and the plate was incubated at room temperature for 15 min. 10 µL of Anti-Tag1-Tb working solution (prepared by adding 25 µL of Anti-Tag1-Tab mother solution to 2475 µL of dilution buffer) was added, 10 µL of Anti-Tag2-XL665 working solution (prepared by adding 25 µL of Tag2-XL665 mother solution to 2475 µL of dilution buffer) was added, and the plate was sealed with a film and incubated at room temperature for 1 h. The detection was carried out using a Perkin Elma Envision instrument.

LAG3/FGL1 = biological target: T2, LAG3/FGL1 (Homo sapiens, UniProt P18627); test: HTRF binding inhibition of LAG3 and its ligand FGL1; details: binding inhibition LAG3/FGL1; read-out: IC50
T2 sequence (P18627 23-450 limits assumed): T1 sequence (P18627 23-450 limits assumed)
Protocol: Reagent preparation: ① Tag1-LAG3 protein: a protein solution with a concentration of 50 nM (20 µL with a final system concentration of 10 nM) was prepared using a diluent. ② Tag2-FGL1 protein: a protein solution with a concentration of 100 nM (20 µL with a final system concentration of 20 nM) was prepared using a diluent. ③ Anti-Tag1-Tb: a 100× stock solution was diluted with a detection buffer to a 1 × stock solution. ④ Anti-Tag2-XL665: a 100× stock solution was diluted with a detection buffer to a 1 × stock solution.
Assay step: (1) 2 µL of compound solution (with a concentration to be measured of 10×) was added to a 384-well opaque plate having a white background, 4 µL of Tag1-LAG3 protein and 4 µL of Tag2-FGL1 protein were added, respectively, and the plate was incubated at room temperature for 15 min; (2) Anti-Tag1-Tb and Anti-Tag2-XL665 were mixed at a ratio of 1:1 in advance, and 10 µL of mix solution was added to each well; (3) the plate was gently mixed, sealed, and incubated at room temperature for 1 h or overnight before detection.

mouse melanoma B16F10 [1] = type: in vivo; details: B16F10, Table 7, 100 mg/kg intraperitoneally once
Protocol: (§1) (1) 43 8-week-old female C57B/L mice were selected and divided into 5 cages. One preserved B16F10 tumor-bearing female C57L mouse was sacrificed by cervical dislocation. 75% alcohol was sprayed on the skin of the mouse in a laminar flow cabinet, and the tumor tissue of the tumor-bearing mouse was separated by sterilized surgical instruments and cut into a sterilized 5 mL homogenizer with ophthalmic scissors. The tumor tissue was slowly milled on ice to form a tumor fluid. The number of cells was 6.85 × 10^7 cells/mL as counted with a BioRad counting instrument. The tumor fluid was placed in an Erlenmeyer flask in an ice bath for later use. The tumor fluid was evenly aspirated using a 1 mL sterile syringe and inoculated 0.2 mL/C57/L mouse. After the inoculation was completed, the mice continued to be fed under the initial feeding conditions.
(§2) (4) The animals were sacrificed, and the tumors were separated and weighed. The animals in each group were treated immediately 1 h after administration on the last day and weighed, and the tumor tissue was weighed.
Animal grouping and administration: On the second day after tumor fluid inoculation of C57B/L mice, tumor-bearing mice were randomly grouped: a control group, a Compound 8-5 mg/kg group, a Compound 8-10 mg/kg group, a Compound 8-20 mg/kg group, and a positive control drug cyclophosphamide CTX-100 mg/kg group. The animals were weighed and administered daily. The drugs to be tested were administered orally daily, and the positive control drug CTX was administered intraperitoneally once. After the experiment was completed, the body weights and tumor weights of the animals were weighed, and the tumor weight inhibition rate (%) was calculated.

[2] = system: mouse liver cancer HEPA1-6; type: in vivo; details: HEPA1-6, 100 mg/kg ip once, after 27 days of administration
Protocol: (1) 32 8-week-old female C57L mice were selected and divided into 5 cages. HEPA1-6 cells cultured with DMEM + 10% FBS in vitro were washed with PBS and digested with 0.25% trypsin for 3 min. The digestion was terminated with a serum-containing medium, the cells were centrifuged at 2500 rpm for 5 min, the supernatant was discarded, and the cells were resuspended with an appropriate amount of PBS twice. The number of cells was 1.14 × 10^7 cells/mL as counted with a BioRad counting instrument. The cell suspension was placed in an Erlenmeyer flask in an ice bath for later use. The tumor fluid was evenly aspirated using a 1 mL sterile syringe and inoculated 0.2 mL/mouse. After the inoculation was completed, the mice continued to be fed under the initial feeding conditions.
(2) Animal grouping: On the second day after tumor fluid inoculation of C57B/L mice, 32 mice were randomly grouped: 8 mice in a control group, 6 mice in a Compound 4-5 mg/kg group, 6 mice in a Compound 4-10 mg/kg group, 6 mice in a Compound 4-20 mg/kg group, and 6 mice in a positive control drug cyclophosphamide (CTX)-100 mg/kg group. The drug test groups were given the drugs to be tested orally once a day, and the positive control drug CTX was injected intraperitoneally once. The mice were weighed and administered daily.
(3) Drug preparation: The corresponding amounts of the drugs to be tested were weighed according to the final concentrations of the experimental groups. The drugs of the Compound 4-5 mg/kg group, the Compound 4-10 mg/kg group, and the Compound 4-20 mg/kg group were prepared with 5% CMCNa + Tween 80, and CTX was prepared with normal saline. The mice in the control group were given 5% CMCNa solution orally. The dosages were as follows: 0.4 mL/20 g body weight of the animal for intragastric administration, and 0.2 mL/20 g body weight of the animal for intraperitoneal injection.
(4) The animals were sacrificed, and the tumors were separated and weighed. The animals in each group were treated immediately 1 h after administration on the last day and weighed, and the tumor tissue was separated and weighed.

mouse melanoma B16F10 [3] = type: in vivo; details: B16F10, Table 6, 100 mg/kg ip once, after 15 days of administration
Protocol: as §1
(2) Animal grouping and administration: On the second day after tumor fluid inoculation of C57B/L mice, 43 mice were randomly grouped: 10 mice in a control group, 8 mice in a Compound 4-20 mg/kg group, 8 mice in a Compound 4-30 mg/kg group, 8 mice in a Compound 4-40 mg/kg group, and 9 mice in a positive control drug cyclophosphamide CTX-100 mg/kg group. The mice were weighed and administered.
(3) Drug preparation: The corresponding amounts of the drugs were weighed according to the final concentrations of the experimental groups. The drugs of the Compound 4-20 mg/kg group and the Compound 4-30 mg/kg group were prepared with 0.25% CMCNa + Tween 80 and administered orally once a day. The drug of Compound 4-40 mg/kg was prepared with normal saline + Tween 80 and administered intraperitoneally. CTX was prepared with normal saline and administered intraperitoneally once. The mice in the control group were given 0.25% CMCNa solution orally.
as §2

Question: `CCCCCCOc1ccc(C(=O)NCCCCNC(=O)C(F)(F)F)cc1-c1cc(C(=O)NCCCCNC(=O)C(F)(F)F)ccc1OCCCCCC` [Compound 13] was tested. Which IC50 (LAG3/MHCII) did it give?
Answer: 4.01 µM

Question: And the IC50 (LAG3/FGL1)?
Answer: 46 µM

Question: Which Inhibition rate (mouse melanoma B16F10 [1]) does the source give for `O=P1(N(CCCl)CCCl)NCCCO1` (centres unmarked) [CTX, cyclophosphamide, reference compound] here?
Answer: 82.93%

Question: What about the Tumor weight (mouse melanoma B16F10 [1]) of the same compound?
Answer: 0.30 ± 0.10 g

Question: And the Inhibition rate [2]?
Answer: -18.65%

Question: And the Tumor weight [2]?
Answer: 0.804 ± 0.459 g

Question: What about the Inhibition rate (mouse melanoma B16F10 [3]) of the same compound?
Answer: 61.20%

Question: What about the Tumor weight (mouse melanoma B16F10 [3]) of the same compound?
Answer: 1.128 ± 0.394 g
